# Measurements from publication PMC5974403, “The novel histone de acetylase 6 inhibitor, MPT0G211, ameliorates tau phosphorylation and cognitive deficits in an Alzheimer’s disease model” (Cell Death & Disease, 2018).
# Peptide text beside a SMILES is read from it. * marks the point of attachment. Cbz = O=C(OCc1ccccc1)*
# Assays:
# Neuro-2a cells [1] = test: Western blot of acetyl-α-tubulin and acetyl-histone, Neuro-2a cells; assay type: cell-based, mouse; conditions: 0.1 to 1 μM, 24 h
# Protocol: (§1) Cell viabilities were determined by MTT assay. The results represent the mean ± SEM of three independent experiments; *p < 0.05, **p < 0.01 and ***p < 0.001 compared with controls TEXT PRINTED IN THE PICTURE: (A) no label printed: M.W. 293.32
# (§2) Cells (1 × 10^6) were incubated for 10 min at 4 °C in lysis buffer (20 mM HEPES, pH 7.4, 2 mM EGTA, 50 mM β-glycerophosphate, 0.1% Triton X-100, 10% glycerol, 1 mM dithiothreitol, 1 μg/mL leupeptin, 5 μg/mL aprotinin, 1 mM phenylmethylsulfonyl fluoride, and 1 mM sodium orthovanadate), scraped from the plate, incubated on ice for 10 min, and centrifuged at 17,000 × g for 30 min at 4 °C. Protein samples (30 μg) were electrophoresed through sodium dodecyl sulfate-polyacrylamide gels (SDS-PAGE) and transferred onto a nitrocellulose membrane, which was then blocked by incubation for 30 min at room temperature with 5% fat-free milk in PBS. Immunoblotting was performed by overnight incubation at 4 °C with primary antibodies in PBS, followed by incubation for 1 h at room temperature with HRP-conjugated secondary antibodies. Bound antibodies were measured using ECL reagent (T-Pro Biotechnology, New Taipei City, Taiwan), and the membrane was placed on a photographic film. Cell lysates (30 μg) were incubated with antibodies (1 μg each) and protein A/G agarose beads overnight at 4 °C. The precipitated beads were washed three times with 1 mL of ice-cold cell lysis buffer, and bound immune complexes were separated using 8% SDS-PAGE, followed by immunoblotting using the indicated primary antibody.
# SH-SY5Y cells [2] = test: Flow cytometry of sub-G1 (PI) and annexin V/PI in transfected SH-SY5Y cells; assay type: cell-based, human; conditions: hAPP + hTauP301L transfected SH-SY5Y, 0.1 μM, 24 h
# Protocol: The fractionation scheme used to separate different cellular pools of tau, and the western blot analysis of the effects of the compounds on tau pools generated using the fractionation scheme are presented. b, d SH-SY5Y cells were transfected for 24 h with pCAX APP 695 and pRK5-EGFP-Tau P301L, incubated with or without MPT0G211 or ACY-1215 (0.1 μM) for another 24 h, and then the cells were fixed and stained by propidium iodide (b) or annexin V/PI double staining (d) and analyzed by flow cytometry. c, e Percentages of the subG1 phase (c) or annexin V-positive cells (e) in response to drug treatment as explained in (b). Results are presented as the mean ± SEM. *p < 0.05 and **p < 0.01 compared with the control group; ^#p < 0.05 and ^##p < 0.01 compared with the indicated groups TEXT PRINTED IN THE PICTURE: (B) MPT0G211: hAPP + hTauP301L: SubG1 10.91% | (B) ACY-1215: hAPP + hTauP301L: SubG1 15.40% | (D) MPT0G211: hAPP + hTauP301L: 9.56%; hAPP + hTauP301L: 11.26% | (D) ACY-1215: hAPP + hTauP301L: 9.28%; hAPP + hTauP301L: 11.25%
# After drug treatment, the cells were collected, washed with cold phosphate-buffered saline (PBS), and fixed with 75% alcohol overnight at −20 °C. After centrifugation, the fixed cells were washed with cold PBS and resuspended in DNA extraction buffer (0.2 M Na2HPO4, 0.1 M citric acid, pH 7.8) for 30 min. The cells were centrifuged and incubated with propidium iodide (PI) (0.1% Triton X-100, 100 μg/mL RNase A, and 80 μg/mL PI in PBS) for 30 min. The cell cycle was analyzed using a FACScan Flow cytometer and Cell Quest software (Becton Dickinson, Mountain View, CA, USA).
# SH-SY5Y cells [3] = test: Western blot of acetyl-α-tubulin and acetyl-histone, SH-SY5Y cells; assay type: cell-based, human; conditions: 0.1 to 1 μM, 24 h
# Protocol: as §1, §2
# SH-SY5Y cells [4] = test: Western blot of tau phosphorylation and kinases in SH-SY5Y cells transfected with pCAX APP 695 and pRK5-EGFP-Tau P301L; assay type: cell-based, human; conditions: SH-SY5Y transfected, MG132 1 μM 30 min before MPT0G211 0.1 μM 24 h
# Protocol: (§3) Images represented magnification at ×100. b Cells were transfected with pCAX APP 695 for 24 h, harvested, and cell lysates were subjected to Western blotting. c, d SH-SY5Y and Neuro-2a cells were transfected with pCAX APP 695 and/or pRK5-EGFP-Tau P301L for 24 h. Cell lysates were prepared for western blot analysis of the indicated proteins. e, f Cells were transfected with pCAX APP 695 and pRK5-EGFP-Tau P301L for 24 h and were then incubated with or without MPT0G211 or ACY-1215 (0.1 μM) for another 24 h. Cell lysates were subjected to western blot analysis using the indicated antibodies. Results are presented as the mean ± SEM from three independent experiments. **p < 0.01, ***p < 0.001 compared with the control group; ^#p < 0.05, ^##p < 0.01 compared with the indicated groups
# (§4) Cell lysates were prepared for western blot analysis of the indicated proteins. Results are presented as the mean ± SEM. *p < 0.05, **p < 0.01, and ***p < 0.001 compared with the control group; ^#p < 0.05, ^##p < 0.01, ^###p < 0.001 compared with the indicated groups
# (§5) Cells were seeded 1 day before transfection. The plasmids pCAX FLAG APP and pRK5-EGFP-Tau P301L (1 μg each) and 1 μL of TurboFect transfection reagent were mixed for 20 min at room temperature, added to the cells, and the suspensions were incubated for 24 h at 37 °C in a humidified atmosphere containing 5% CO2.
# as §2
# Neuro-2a cells [5] = test: Western blot of tau phosphorylation and kinases in Neuro-2a cells transfected with pCAX APP 695 and pRK5-EGFP-Tau P301L; assay type: cell-based, mouse; conditions: Neuro-2a transfected, MG132 1 μM 30 min before MPT0G211 0.1 μM 24 h
# Protocol: as §3, §4, §5, §2
# [6] = Fig. 3d picture, quadrant not identified
SMILES,acetylation of α-tubulin (Neuro-2a cells [1]),"SubG1 population (SH-SY5Y cells [2]; PI staining, Fig. 3b picture)","annexin V/PI double staining, quadrant percentage (SH-SY5Y cells [2]; [6])","annexin V/PI double staining, quadrant percentage (first value) (SH-SY5Y cells [2]; [6])",acetylation of α-tubulin (SH-SY5Y cells [3]),effect on MPT0G211-induced inhibition of p-tau at Ser396 (SH-SY5Y cells [4]),effect on MPT0G211-induced inhibition of p-tau at Ser396 (Neuro-2a cells [5]),acetylation of histones (Neuro-2a cells [1]),acetylation of histones (SH-SY5Y cells [3])
"O=C(CCCCCCNC(=O)c1cnc(N(c2ccccc2)c2ccccc2)nc1)NO [ACY-1215, reference compound]",less acetylation of α-tubulin,15.40%,11.25%,9.28%,less acetylation of α-tubulin,,,,
"CC(C)C[C@@H](C=O)NC(=O)[C@H](CC(C)C)NC(=O)[C@H](CC(C)C)NC(=O)OCc1ccccc1 [MG132, reference compound] (Cbz-Leu-Leu-Leu-aldehyde)",,,,,,significantly reversed,significantly reversed,,
O=C(CCCCCCC(=O)Nc1ccccc1)NO [SAHA],significantly increased,,,,significantly increased,,,significantly increased,significantly increased
